The supplement of paper PMC4862054

Assays:
Test in all cases: normalised response (% of control), CellTox Green; higher = less cell death (100 = DMSO, 0 = benzethonium chloride kill control)
Details in all cases: incubation time: 72 h
DU-4475 = system: DU-4475
In short: (§1)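 Two readouts were taken after 72 h: CellTox Green fluorescence (485/520 nm) first, then CellTiter-Glo luminescence after 10 min at room temperature. Breast cancer cell lines had been seeded as 20 µl suspension into 384-well plates holding compound at 5 concentrations in 10-fold steps across a compound-specific 10,000-fold range. Each value is a normalised signal at a single concentration, with plates scaled to 0.1 % DMSO (100) and a positive kill control (0).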

BT-474 = system: BT-474
In short: as §1

MDA-MB-231 = system: MDA-MB-231
In short: as §1

MFM-223 = system: MFM-223
In short: as §1

HCC1143 = system: HCC1143
In short: as §1

MDA-MB-453 = system: MDA-MB-453
In short: as §1

CAL-120 = system: CAL-120
In short: as §1

BT-549 = system: BT-549
In short: as §1

Hs578T = system: Hs578T
In short: as §1

CAL-51 = system: CAL-51
In short: as §1

HCC1937 = system: HCC1937
In short: as §1

MDA-MB-436 = system: MDA-MB-436
In short: as §1

MCF-10A = system: MCF-10A
In short: as §1

CAL-85-1 = system: CAL-85-1
In short: as §1

HDQ-P1 = system: HDQ-P1
In short: as §1

MDA-MB-468 = system: MDA-MB-468
In short: as §1

`CCNC(=O)CCC/C=C\C[C@@H]1[C@@H](/C=C/[C@@H](O)CCc2ccccc2)[C@H](O)C[C@@H]1O` [Bimatoprost] (5500 nM) was tested, and the normalised response (DU-4475) was 99.7%, the normalised response (BT-474) was 57% and the normalised response (MDA-MB-231) was 110%. For the same molecule, the normalised response (MFM-223) was 97.4%, the normalised response (HCC1143) was 117% and the normalised response (MDA-MB-453) was 98%. It also gave a normalised response (CAL-120) of 98.4%, a normalised response (BT-549) of 121% and a normalised response (Hs578T) of 61.1%. For the same molecule, the normalised response (CAL-51) was 112%, the normalised response (HCC1937) was 104% and the normalised response (MDA-MB-436) was 77%. For the same molecule, the normalised response (MCF-10A) was 86.9%, the normalised response (CAL-85-1) was 106% and the normalised response (HDQ-P1) was 79.9%.

Work on `CC(C)C[C@H](NC(=O)[C@@H](COC(C)(C)C)NC(=O)[C@H](Cc1ccc(O)cc1)NC(=O)[C@H](CO)NC(=O)[C@H](Cc1c[nH]c2ccccc12)NC(=O)[C@H](Cc1cnc[nH]1)NC(=O)[C@@H]1CCC(=O)N1)C(=O)N[C@@H](CCCNC(=N)N)C(=O)N1CCC[C@H]1C(=O)NNC(N)=O` [Goserelin] (10000 nM) yielded a normalised response (DU-4475) of 98.9%, a normalised response (BT-474) of 84.2% and a normalised response (MDA-MB-231) of 94.9%. For the same molecule, the normalised response (MDA-MB-453) was 95%, the normalised response (CAL-120) was 98% and the normalised response (BT-549) was 107%. For the same molecule, the normalised response (MDA-MB-468) was 181%, the normalised response (CAL-51) was 104% and the normalised response (HCC1937) was 88%. For the same molecule, the normalised response (MDA-MB-436) was 90.3%, the normalised response (MCF-10A) was 75.6% and the normalised response (CAL-85-1) was 114%. The normalised response (HDQ-P1) was 62.5%.

`CC(O)(CS(=O)(=O)c1ccc(F)cc1)C(=O)Nc1ccc(C#N)c(C(F)(F)F)c1` (stereo unspecified) [Bicalutamide] (1000 nM) showed a normalised response (DU-4475) of 103%, a normalised response (BT-474) of 104% and a normalised response (MDA-MB-231) of 115%. For the same molecule, the normalised response (MFM-223) was 97.5%, the normalised response (HCC1143) was 111% and the normalised response (MDA-MB-453) was 103%. It also gave a normalised response (CAL-120) of 97.6%, a normalised response (BT-549) of 116% and a normalised response (MDA-MB-468) of 137%. For the same molecule, the normalised response (CAL-51) was 112%, the normalised response (HCC1937) was 59.6% and the normalised response (MDA-MB-436) was 95.5%. The normalised response (MCF-10A) was 105%, the normalised response (CAL-85-1) was 94.6% and the normalised response (HDQ-P1) was 104%.

With `CO[C@@]12[C@H](COC(N)=O)C3=C(C(=O)C(C)=C(N)C3=O)N1C[C@@H]1N[C@@H]12` [Mitomycin C] (1000 nM) the normalised response (DU-4475) was 94.7%, the normalised response (BT-474) was 94.9% and the normalised response (MDA-MB-231) was 97.1%. It also gave a normalised response (MFM-223) of 101%, a normalised response (HCC1143) of 104% and a normalised response (MDA-MB-453) of 100%. It also gave a normalised response (CAL-120) of 100%, a normalised response (BT-549) of 123% and a normalised response (Hs578T) of 90.8%. For the same molecule, the normalised response (CAL-51) was 35.3%, the normalised response (HCC1937) was 111% and the normalised response (MDA-MB-436) was 78.8%. For the same molecule, the normalised response (MCF-10A) was 90.1%, the normalised response (CAL-85-1) was 97.6% and the normalised response (HDQ-P1) was 106%.

With `O=C(CCCCCCC(=O)Nc1ccccc1)NO` [Vorinostat] (1000 nM) the normalised response (DU-4475) was 94.5%, the normalised response (BT-474) was 96.8% and the normalised response (MDA-MB-231) was 83.2%. For the same molecule, the normalised response (MFM-223) was 97.3%, the normalised response (HCC1143) was 100% and the normalised response (MDA-MB-453) was 93.9%. It also gave a normalised response (CAL-120) of 95.1%, a normalised response (BT-549) of 115% and a normalised response (MDA-MB-468) of 103%. The normalised response (Hs578T) was 78.8%, the normalised response (CAL-51) was 96.6% and the normalised response (HCC1937) was 122%. The normalised response (MDA-MB-436) was 73.5%, the normalised response (MCF-10A) was 89.9% and the normalised response (CAL-85-1) was 95.5%.

In the case of `C/C(=C\c1csc(C)n1)[C@@H]1C[C@@H]2O[C@]2(C)CCC[C@H](C)[C@H](O)[C@@H](C)C(=O)C(C)(C)[C@@H](O)CC(=O)N1` [Ixabepilone] (100 nM), the normalised response (DU-4475) is reported as 103%, the normalised response (BT-474) is reported as 100% and the normalised response (MDA-MB-231) is reported as 102%. It also gave a normalised response (MFM-223) of 98.8%, a normalised response (HCC1143) of 102% and a normalised response (MDA-MB-453) of 107%. For the same molecule, the normalised response (CAL-120) was 105%, the normalised response (BT-549) was 65.6% and the normalised response (MDA-MB-468) was 83%. It also gave a normalised response (Hs578T) of 95.5%, a normalised response (CAL-51) of 35.9% and a normalised response (MDA-MB-436) of 106%. For the same molecule, the normalised response (MCF-10A) was 87.7% and the normalised response (CAL-85-1) was 95.9%.

`CC(=O)[C@]1(O)Cc2c(O)c3c(c(O)c2[C@@H](O[C@H]2C[C@H](N)[C@H](O)[C@H](C)O2)C1)C(=O)c1ccccc1C3=O` [Idarubicin] (100 nM) gave a normalised response (DU-4475) of 95.2%, a normalised response (BT-474) of 72.2% and a normalised response (MDA-MB-231) of 114%. For the same molecule, the normalised response (MFM-223) was 99.2%, the normalised response (HCC1143) was 102% and the normalised response (MDA-MB-453) was 108%. For the same molecule, the normalised response (CAL-120) was 98.8%, the normalised response (BT-549) was 98.7% and the normalised response (MDA-MB-468) was 49.4%. It also gave a normalised response (Hs578T) of 103%, a normalised response (CAL-51) of 70.2% and a normalised response (HCC1937) of 110%. For the same molecule, the normalised response (MDA-MB-436) was 40.4%, the normalised response (MCF-10A) was 112% and the normalised response (CAL-85-1) was 86.2%.

`Cn1cc(C2=C(c3cn(C4CCN(Cc5ccccn5)CC4)c4ccccc34)C(=O)NC2=O)c2ccccc21` [Enzastaurin] (10000 nM) gave a normalised response (DU-4475) of 111%, a normalised response (BT-474) of 95.5% and a normalised response (MDA-MB-231) of 113%. The normalised response (MFM-223) was 100%, the normalised response (HCC1143) was 111% and the normalised response (MDA-MB-453) was 108%. It also gave a normalised response (CAL-120) of 79.2%, a normalised response (BT-549) of 94.8% and a normalised response (MDA-MB-468) of 138%. For the same molecule, the normalised response (CAL-51) was 95.7%, the normalised response (HCC1937) was 121% and the normalised response (MDA-MB-436) was 94.4%. The normalised response (MCF-10A) was 94.4%, the normalised response (CAL-85-1) was 65% and the normalised response (HDQ-P1) was 101%.

`Cn1cc(C2=C(c3cn(C4CCN(Cc5ccccn5)CC4)c4ccccc34)C(=O)NC2=O)c2ccccc21` [Enzastaurin] (1000 nM) showed a normalised response (DU-4475) of 104%, a normalised response (BT-474) of 105% and a normalised response (MDA-MB-231) of 76.6%. The normalised response (MFM-223) was 82%, the normalised response (HCC1143) was 105% and the normalised response (MDA-MB-453) was 107%. The normalised response (CAL-120) was 103%, the normalised response (BT-549) was 143% and the normalised response (MDA-MB-468) was 112%. It also gave a normalised response (Hs578T) of 97.7%, a normalised response (CAL-51) of 104% and a normalised response (MDA-MB-436) of 89.4%. For the same molecule, the normalised response (MCF-10A) was 109%, the normalised response (CAL-85-1) was 97.7% and the normalised response (HDQ-P1) was 87.7%.

Work on `CC(C)(C)NC(=O)[C@H]1CC[C@H]2[C@@H]3CC[C@H]4NC(=O)C=C[C@]4(C)[C@H]3CC[C@]12C` [Finasteride] (10000 nM) yielded a normalised response (DU-4475) of 102%, a normalised response (BT-474) of 100% and a normalised response (MDA-MB-231) of 113%. For the same molecule, the normalised response (HCC1143) was 81.5%, the normalised response (MDA-MB-453) was 85.4% and the normalised response (CAL-120) was 106%. The normalised response (BT-549) was 98.9%, the normalised response (MDA-MB-468) was 174% and the normalised response (CAL-51) was 100%. It also gave a normalised response (HCC1937) of 77.4%, a normalised response (MDA-MB-436) of 101% and a normalised response (MCF-10A) of 94.1%. For the same molecule, the normalised response (CAL-85-1) was 91.2% and the normalised response (HDQ-P1) was 102%.

`CC(O)(CS(=O)(=O)c1ccc(F)cc1)C(=O)Nc1ccc(C#N)c(C(F)(F)F)c1` (stereo unspecified) [Bicalutamide] (10000 nM) showed a normalised response (DU-4475) of 104%, a normalised response (BT-474) of 103% and a normalised response (MDA-MB-231) of 125%. The normalised response (MFM-223) was 100%, the normalised response (HCC1143) was 134% and the normalised response (MDA-MB-453) was 99%. For the same molecule, the normalised response (CAL-120) was 103%, the normalised response (BT-549) was 116% and the normalised response (Hs578T) was 86%. It also gave a normalised response (CAL-51) of 92.2%, a normalised response (HCC1937) of 112% and a normalised response (MDA-MB-436) of 78.1%. For the same molecule, the normalised response (MCF-10A) was 106%, the normalised response (CAL-85-1) was 67.6% and the normalised response (HDQ-P1) was 66.2%.
